In US20250270182A1, “Composition Comprising an Antimicrobial Agent and an Alkyl Ketal Ester Compound” (Symrise AG, priority 2022, published 2025):

Key:
Experiment in all cases: Minimum Inhibitory Concentration (MIC) test, growth inhibition in 96 well plates
Format in all cases: cell-based
Candida albicans = details: lowest concentration with complete growth inhibition, optical density, substances solved in DMSO; for MIC: Candida albicans, read-out: MIC in ppm Candida albicans
Method: (§1) The Minimum Inhibitory Concentration (MIC) test is a test on growth inhibition. The estimation of MICs is executed in 96 well plates. Through the comparison of bacterial growth with positive and negative controls via optical density (OD), different concentrations of given test substances are evaluated. Bacteria were cultivated under adjusted conditions based on information of the German Collection of Microorganisms and Cell Cultures (DSMZ) and stored in 10% or 50% glycerol prior to use. Afterwards, the following method was applied: Growth medium (according to microorganism) was added to each well of the microplate. Then, the test-substances, solved in DMSO, were added in different concentrations, positive controls (water controls only with medium), solvent controls (DMSO controls only with medium), and negative controls (benchmarks according to organism). Finally, the microorganisms were added in a concentration of 1 to 6×10^6 CFU/ml (CFU=colony forming units). The incubation of the microplates was carried out at appropriate conditions. According to the resulting growth, substance concentrations are labelled either as inhibiting or not and MIC is defined as the lowest concentration where a complete growth inhibition is visible. Experiments at concentration limits (highest concentration labelled as growth and lowest concentration labelled as inhibiting) are performed at least twice. The synergistic activity of NxtSolv 320 (Ethyl propylene glycol acetal levulinate) and Nxt Solv 420 (Ethyl glycerine acetal levulinate) in combination with different antimicrobial compounds was determined by measuring the Minimum Inhibitory Concentrations (MIC) according to the method as described above. […] In special occasions, intermediate dilution steps were performed to further improve the MIC resolution. […] To verify that the tested combinations act synergistically against microorganisms, corresponding experiments were conducted with Staphylococcus aureus, Candida albicans, Aspergillus brasiliensis, Pseudomonas aeruginosa and Escherichia coli. […] In order to calculate the synergy index with MIC values, the Kull equation was used as follows: […]

Staphylococcus aureus = details: lowest concentration with complete growth inhibition, optical density, substances solved in DMSO; for MIC: Staphylococcus aureus, read-out: MIC in ppm Staphylococcus aureus
Method: as §1

Escherichia coli = details: lowest concentration with complete growth inhibition, optical density, substances solved in DMSO; for MIC: Escherichia coli, read-out: MIC in ppm Escherichia coli
Method: as §1

Aspergillus brasiliensis = details: lowest concentration with complete growth inhibition, optical density, substances solved in DMSO; for MIC: Aspergillus brasiliensis, read-out: MIC in ppm Aspergillus brasiliensis
Method: as §1

Pseudomonas aeruginosa = details: lowest concentration with complete growth inhibition, optical density, substances solved in DMSO; for MIC: Pseudomonas aeruginosa, read-out: MIC in ppm Pseudomonas aeruginosa
Method: as §1

CC(=O)c1ccc(O)cc1 [4-Hydroxyacetophenone]
MIC in ppm Candida albicans (Candida albicans): 6,000 ppm
MIC in ppm Staphylococcus aureus (Staphylococcus aureus): 5,000 ppm
MIC in ppm Escherichia coli (Escherichia coli): 2,500 ppm
MIC in ppm Aspergillus brasiliensis (Aspergillus brasiliensis): 2,500 ppm
MIC in ppm Pseudomonas aeruginosa (Pseudomonas aeruginosa): 4,000 ppm

CCCCC(CC)COCC(O)CO (centres unmarked) [Ethylhexylglycerin]
MIC in ppm Candida albicans (Candida albicans): 1,000 ppm
MIC in ppm Staphylococcus aureus (Staphylococcus aureus): 1,000 ppm
MIC in ppm Escherichia coli (Escherichia coli): 2,500 ppm
MIC in ppm Aspergillus brasiliensis (Aspergillus brasiliensis): 1,000 ppm
MIC in ppm Pseudomonas aeruginosa (Pseudomonas aeruginosa): 50,000 ppm

CCCC(O)CO (centres unmarked) [1,2-Pentanediol]
MIC (Candida albicans): 12.5 mg/mL
MIC (Staphylococcus aureus): 35 mg/mL
MIC (Escherichia coli): 15 mg/mL
MIC (Aspergillus brasiliensis): 17.5 mg/mL
MIC (Pseudomonas aeruginosa): 30 mg/mL

CCOC(=O)CCC1(C)OCC(CO)O1 (centres unmarked) [Ethyl glycerine acetal levulinate, ethyl glycerine acetal levulinate]
MIC (Candida albicans): 25 mg/mL
MIC (Staphylococcus aureus): 17.5 mg/mL
MIC (Escherichia coli): 25 mg/mL
MIC (Aspergillus brasiliensis): 15 mg/mL
MIC (Pseudomonas aeruginosa): 35 mg/mL
